Measurements as given in patent publication US10774046B2, “Inhibitors for the treatment of cancer and related methods” (UNIVERSITY OF LOUISVILLE RESEARCH FOUNDATION, INC., priority 2017, dated 2020).

Tests used:
H460 cells [1] = assay: proliferation, viable cell count by trypan blue exclusion; format: cell-based, human; conditions: for proliferation (cell counts relative to DMSO): H460, counts at 72 hours shown
Experimental: Cells were incubated in 20% trypan blue (Sigma) for 5 minutes. Cells excluding trypan blue were counted using a standard hemocytometer (Hausser Scientific) to determine total numbers of viable cells. Data are expressed as mean±SD of three experiments.
H460 non-small cell lung cancer cells were plated in 24 well plates and exposed to increasing concentrations of the indicated inhibitors of Formula IV (FBR1-02 corresponds to
DMSO was used as vehicle. After 24, 48 and 72 hours of exposure, cells were detached and viable cells were counted by Trypan blue exclusion (representative counts at 48 hours shown).
Method: H460 cells were plated in 24 well plates and exposed to increasing concentrations of FB4-31 to FB4-36 and 5MPN. DMSO was used as a vehicle. After 24, 48 and 72 hours of exposure, cells were detached, and viable cells were counted by Trypan blue exclusion (representative counts at 72 hours shown).

H460 cells [2] = assay: F2,6BP measurement in cells (coupled enzyme reaction); format: cell-based, human; conditions: H460, effects at 2.5 μM
Experimental: Cells or tissues were prepared as previously described and F2,6BP content measured using a coupled enzyme reaction following a modification of the method of Van Schaftingen et al (VAN SCHAFTINGEN E et al. “A kinetic study of pyrophosphate:fructose-6-phosphate phosphotransferase from potato tubers. Application to a microassay of fructose 2,6-bisphosphate” Eur J Biochem (1982) Vol. 129, No. 1, pp. 191-195) and normalized to total cellular protein measured by the bicinchoninic acid assay (BCA, Thermo Scientific). For example, H460 cells were exposed to the indicated concentrations of MPN-2. In order to measure F2,6BP, cells were harvested, washed with PBS, lysed in NaOH/Tris acetate by heating at 80° C. and lysates neutralized to pH 7.2. F2,6BP content was measured using a coupled enzyme reaction following a modified method of Van Schaftingen et al (VAN SCHAFTINGEN E et al. “A kinetic study of pyrophosphate:fructose-6-phosphate phosphotransferase from potato tubers. Application to a microassay of fructose 2,6-bisphosphate” Eur J Biochem (1982) Vol. 129, No. 1, pp. 191-195). The F2,6BP concentration was normalized to total cellular protein measured by the bicinchoninic acid assay (BCA, Thermo Scientific). All data are expressed as the mean±SD of three experiments. Statistical significance was assessed by the two-sample t test (independent variable).
Method: In order to measure F26BP, H460 cells were exposed to increasing concentrations of the agents and were harvested, washed with PBS, lysed in NaOH/Tris acetate by heating at 80° C. and lysates neutralized to pH 7.2. F26BP content was measured using a coupled enzyme reaction following a modified method of Van Schaftingen et al. (Eur J Biochem. 1982; 129(1):191-195). The F26BP concentration was normalized to total cellular protein measured by the bicinchoninic acid assay (BCA, Thermo Scientific).

H460 cells [3] = assay: glycolysis assay (3H2O from 5-[3H]glucose); format: cell-based, human; conditions: H460
Experimental: H460 cells were exposed to the indicated concentrations of MPN-2 and glycolysis production was examined. Cells growing in 6-well plates were incubated in 500 μl of complete medium containing 1 μCi of 5-[^3H]glucose per well for 60 min in 5% CO2 at 37° C. Media was collected, ^3H2O formed via glycolysis from the 5-[^3H]glucose measured and counts normalized as previously described. For example, the medium was then collected and centrifuged to pellet any suspended cells. To separate the ^3H2O formed via glycolysis from the 5-[^3H]glucose added to the medium, an evaporation technique in a sealed system was utilized. Briefly, 150 μl aliquots of medium were added to open tubes that were placed upright inside scintillation vials containing 1 ml of H2O. The scintillation vials were sealed, and the ^3H2O produced by glycolysis through enolase and released to the medium was allowed to equilibrate with the H2O in the outer vial for 48 h at 37° C. The amounts of ^3H2O that had diffused into the surrounding H2O was measured on a Tri-Carb 2910 liquid scintillation analyzer (Perkin Elmer) and compared with ^3H2O and 5-[^3H]glucose standards. Protein concentration was determined using the BCA assay and counts were normalized to protein concentration. All data are expressed as the mean±SD of three experiments. Statistical significance was assessed by the two-sample t test (independent variable).
Method: To examine glycolysis, H460 cells growing in 6-well plates were incubated in 500 μl of complete medium containing 1 μCi of 5-[^3H] glucose per well for 60 min in 5% CO2 at 37° C. The medium was then collected and centrifuged to pellet any suspended cells. To separate the ^3H2O formed via glycolysis from the 5-[^3H]glucose added to the medium, an evaporation technique in a sealed system was utilized. Briefly, 150 μl aliquots of medium were added to open tubes that were placed upright inside scintillation vials containing 1 ml of H2O. The scintillation vials were sealed, and the ^3H2O produced by glycolysis through enolase and released to the medium was allowed to equilibrate with the H2O in the outer vial for 48 h at 37° C. The amounts of ^3H2O that had diffused into the surrounding H2O was measured on a Tri-Carb 2910 liquid scintillation analyzer (Perkin Elmer) and compared with ^3H2O and 5-[^3H]glucose standards. Protein concentration was determined using the BCA assay and counts were normalized to protein concentration (previously described in CHESNEY et al. Oncotarget. 2014; 5(16):6670-6686.)

human recombinant PFKFB4 = human recombinant PFKFB4 (Homo sapiens, UniProt Q16877); assay: ADP-Glo kinase assay; format: biochemical
Sequence of human recombinant PFKFB4 (Q16877 whole entry): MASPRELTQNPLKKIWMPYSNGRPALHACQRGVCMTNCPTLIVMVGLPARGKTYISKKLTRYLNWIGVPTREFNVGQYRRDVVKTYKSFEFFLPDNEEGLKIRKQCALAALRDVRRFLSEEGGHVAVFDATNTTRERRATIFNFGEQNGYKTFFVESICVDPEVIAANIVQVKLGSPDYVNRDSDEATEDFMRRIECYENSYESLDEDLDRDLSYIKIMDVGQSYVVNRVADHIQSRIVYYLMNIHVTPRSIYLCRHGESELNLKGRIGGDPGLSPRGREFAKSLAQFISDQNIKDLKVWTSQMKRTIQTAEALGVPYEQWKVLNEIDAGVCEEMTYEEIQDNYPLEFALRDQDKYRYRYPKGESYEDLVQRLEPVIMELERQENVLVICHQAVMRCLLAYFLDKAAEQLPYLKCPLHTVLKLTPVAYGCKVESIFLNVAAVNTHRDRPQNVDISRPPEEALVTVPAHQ
Experimental: The fructose-6-phosphate kinase activity of human recombinant PFKFB4 in the presence of DMSO±indicated 5MPN concentrations was assayed as previously described. The activity of 5MPN against 97 kinases was examined using a commercially available active-site dependent competition binding assay core service (KINOMEscanEDGE) that quantifies the capacity of test agents to compete with an immobilized, active-site directed ligand using a DNA-tagged kinase and immobilized ligand and compound. For example, enzyme inhibition was studied using an ADP-Glo assay. The effect of MPN-2 on the activity of recombinant human PFKFB4 enzyme was examined in an ADP-Glo assay (Promega), which measures ADP formed from a kinase reaction. ADP is converted into ATP, which is converted into light by a luciferase. PFKFB4 protein was exposed to MPN-2 at indicated concentrations in the presence of ATP and fructose-6-phosphate and following manufacturer's instructions, ADP-Glo and kinase detections reagents were added. The data are shown as the decrease in luminescence caused by MPN-2 relative to DMSO.
Method: The efficacy of Formula (VIII) in inhibition of the kinase activity of the PFKFB4 enzyme was examined by exposing recombinant human PFKFB4 protein to Formula (VIII) in the ADP-Glo kinase assay (Promega) which measures ADP formed through a kinase reaction. Briefly, recombinant protein, ATP, substrate and Formula (VIII) were incubated together for the kinase reaction followed by the addition of ADP-Glo reagent, used to terminate the kinase reaction. Lastly, a kinase detection reagent was added to convert the newly formed ADP to ATP which was measured by a luciferase reaction. Data are shown in FIG. 10 as the decrease in luminescence caused by Formula (VIII) relative to DMSO.
Method: The efficacy of FB4-32 and FB4-35 in inhibition of the kinase activity of the PFKFB4 enzyme was examined by exposing recombinant human PFKFB4 protein to FB4-32 and FB4-35 in the ADP-Glo kinase assay (Promega) which measures ADP formed through a kinase reaction. Briefly, recombinant protein, ATP, substrate and FB4-32 or FB4-35 were incubated together for the kinase reaction followed by the addition of ADP-Glo reagent to terminate the kinase reaction. Last, a kinase detection reagent was added to convert the newly formed ADP to ATP which was measured by a luciferase reaction. Data are shown as the decrease in luminescence caused by FB4-32 and FB4-35 relative to DMSO.

[4] = pharmacokinetic profile after IV and oral administration; format: in vivo; conditions: mice
Experimental: Method: The pharmacokinetic profile of FB4-32 was determined in mice dosed orally and IV with FB4-32. Nine time points (n=3 per time point) were used to determine indicated PK parameters calculated using WinNonLin v5.0. Plasma samples were extracted using acetonitrile and analyzed by LC/MS-MS using a PhenomexSynergi Polar-RP 4 micron 50×2.0 mm column eluted with a biphasic mobile phase (0.5% formic acid in acetonitrile and water).

kinase activity of the PFKFB4 enzyme (luminescence relative to DMSO) (human recombinant PFKFB4)	oral bioavailability [4]	SMILES	proliferation (H460 cells [1]; H460, Formula IV compounds, counts at 48 hours shown)	F26BP (normalized to cellular protein) (H460 cells [2])	glycolysis (production of 3H2O relative to DMSO) (H460 cells [3])	proliferation (cell counts relative to DMSO) (H460 cells [1])
		O=[N+]([O-])OCCCCCNc1ccnc2ccccc12 [FBR1-02]	decreased proliferation			
inhibited		COc1cccc2c(NCCCCCNC(=O)CBr)ccnc12 [FB4-35, 2-Bromo-N-(5-((8-methoxyquinolin-4-yl)amino)pentyl)acetamide]		decrease	dose-dependent decrease	decreased the proliferation of H460 cells in vitro with higher potency than 5MPN
inhibited	found to have oral bioavailability	COc1cccc2c(NCCCCCCNC(=O)C(F)(F)F)ccnc12 [FB4-32, 2,2,2-Trifluoro-N-(6-((8-methoxyquinolin-4-yl)amino)hexyl)acetamide]		decrease	dose-dependent decrease	decreased the proliferation of H460 cells in vitro with higher potency than 5MPN
